Test results published in patent US10869904B2, “Pharmaceutical composition for preventing or treating respiratory disease comprising extract of Justicia procumbens L” (DONG WHA PHARM. CO., LTD., priority 2016, dated 2020).
Read-outs that look alike come from different tables or passages of the source. Marks after values point to notes of the source that are not given here.

Experiments:
IL4 = experiment: Inhibition of IL4 secretion by Concanavalin A-treated splenocytes (ELISA); format: cell-based, Balb/c mice; details: for inhibition of IL4 secretion (in words): text on Tables 7 and 8
Experimental: (§1) The isolated splenocytes were diluted in RPMI medium (containing 10% fetal bovine serum (FBS) and antibiotics (100 U/mL penicillin and 100 μg/mL streptomycin)) at a concentration of 5×10^6 cells/nit, and the cell dilution was dispended in a 24-well plate in an amount of 500 μl/well and in a 96-well plate in an amount of 100 μl/well. The plates were incubated in a 5% CO2 incubator at 37° C. for 48 hours. […] The medium of the 24-well plate was used to measure the degree of secretion of Th2 inflammatory cytokines (IL4 and IL5), and the 96-well plate was used to measure the degree of cell proliferation. First, in order to measure Th2 cytokines, the medium in the 24-well plate was collected and centrifuged at 800×g for 5 minutes, and the supernatant was collected. 100 μl of the supernatant per well was used in IL4 or IL5 enzyme-linked immunosorbent assay (ELISA, Komabiotech Inc.) to measure the degree of secretion of these cytokines. In order to measure the degree of cell proliferation, […] of CCK8 (cell counting kit 8, Donjindo) solution was added to each well of the 96-well plate, and after 4 hours, the absorbance value was measured. The degree of inhibition of spleen cell proliferation by each drug and the degree of inhibition of Th2 cytokine secretion by each drug were calculated using Equation 2 below. For drug synergistic effects, a linear equation was constructed using the concentrations of drugs administered alone as x-coordinates and using drug concentration-dependent inhibition as y-coordinates. Using this linear equation, the concentrations of drugs administered alone, which correspond to inhibition achieved when administered in combination, were calculated, and combination index (CI) was calculated using Equation 3 below. A CI value of less than 1 indicates a synergistic effect, a CI value of 1 indicates an additive effect, and a CI value of more than 1 indicates an antagonistic effect (Liang Zhao et. al., Clinical Cancer Research, 10, 7994-8004, 2004). […]

IL5 = experiment: Inhibition of IL5 secretion by Concanavalin A-treated splenocytes (ELISA); format: cell-based, Balb/c mice; details: for inhibition of IL5 secretion (in words): text on Tables 7 and 8
Experimental: as §1

splenocytes = experiment: Inhibition of Concanavalin A-induced splenocyte proliferation (CCK8); format: cell-based, Balb/c mice; details: for inhibition of splenocyte proliferation (in words): Tables 4 to 6
Experimental: as §1

[1] = test system: Neutrophilic Asthma Balb/c Mouse Models; experiment: Asthma inhibitory effect in neutrophilic asthma model (ovalbumin + LPS): lung lavage fluid and lung tissue; format: in vivo, Balb/c mice; details: oral
Experimental: On 0 and 7 days after 1 week of acclimation, each of the mice was systematically sensitized by intranasally administering 75 μg of ovalbumin and 10 μg of lipopolysaccharide (LPS). 20, 50 or 100 mg/kg of the Justicia procumbens L. prepared in Preparation Example 3 or a positive control (10 mg/kg of dexamethasone and 1 mg/kg of montelukast) was administered orally to the mice On days 14, 15, 21, 22, 28, 29, 35, 36 and 37. One hour after administration, 50 μg of ovalbumin was administered intranasally to the mice. 24 hours after final sensitization (day 37), lung lavage fluid was obtained through tracheostomy, and the lung tissue was isolated. The collected lung lavage fluid was centrifuged at 3000 rpm […], and the supernatant was used to measure physiologically active substances (IL-4, IL-5, and IFN-γ), and the pellets were used to measure the number of inflammatory cells. The physiologically active substances (interleukin-4 (IL-4), interleukin-5 (IL-5), and interferon-gamma (IFN-γ)) in the isolated lung lavage fluid were measured using an enzyme-linked immunosorbent assay (ELISA, IL-4: Komabiotech #K0331144, IL-5: R&D system #M5000, IFN-γ: Komabiotech #K0331138) corresponding to each substance. In addition, the lung lavage fluid pellets were re-dissolved in 0.5 mL of phosphate buffered saline, and 0.1 mL of the solution was added to each well of a 96-well plate and centrifuged at 800 rpm for 5 minutes to attach the cells to the bottom (3 wells per sample). Then, each sample was stained with Diff Quik staining solution (Sysmex), and photographed with a microscope at 2-6 random sites. About 200 cells per sample were counted and the percentage (%) of inflammatory cells of each sample was calculated. The total number of inflammatory cells was measured with a microscope using a hematocytometer, and the number of eosinophils and the number of neutrophils were calculated using the percentage (%) of inflammatory cells of each sample. Staining of the lung tissue was performed in the same manner as described in Example 5 above. Statistical processing was performed using an SPSS program, and a Levene test was performed for a test for equal variance, and significance was tested by one-way analysis (ANOVA).

[2] = Table 8, Concentration (mM) 0.25
[3] = Table 8, Concentration (mM) 0.5
[4] = Mus musculus, Splenocyte, Table 5, 0.5 μM, read-out: Inhibition of splenocyte proliferation (%, n = 3, Mean ± SD)
[5] = Table 8, Concentration (mM) 0.2

Row | Compound | Inhibition of IL4 secretion (%, n = 2, Mean ± SD) (IL4; Table 7, 1 μM) [%] | inhibition of IL4 secretion (in words) (IL4) | Inhibition of IL5 secretion (%, n = 2, Mean ± SD) (IL5; Table 7, 1 μM) [%] | inhibition of IL5 secretion (in words) (IL5) | Inhibition of splenocyte proliferation (%, n = 3, Mean ± SD) (splenocytes; Table 5, 0.5 μM) [%] | inhibition of splenocyte proliferation (in words) (splenocytes) | inhibition at 0.5 µM (splenocytes; [4]) [%] | Inhibition of IL4 secretion (%, n = 2, Mean ± SD) (IL4; Table 7, 5 μM) [%] | Inhibition of IL4 secretion (%, n = 2, Mean ± SD) (IL4; Table 8, Concentration (mM) 1) [%] | Inhibition of IL4 secretion (%, n = 2, Mean ± SD) (IL4; Table 8, Concentration (mM) 5) [%] | Inhibition of IL5 secretion (%, n = 2, Mean ± SD) (IL5; Table 7, 5 μM) [%] | Inhibition of IL5 secretion (%, n = 2, Mean ± SD) (IL5; Table 8, Concentration (mM) 1) [%] | Inhibition of IL5 secretion (%, n = 2, Mean ± SD) (IL5; Table 8, Concentration (mM) 5) [%] | Inhibition of splenocyte proliferation (%, n = 3, Mean ± SD) (splenocytes; Table 5, 5 μM) [%] | Inhibition of splenocyte proliferation (%, n = 3, Mean ± SD) (splenocytes; Table 6, 1 μM) [%] | Inhibition of splenocyte proliferation (%, n = 3, Mean ± SD) (splenocytes; Table 6, 5 μM) [%] | other results
1 | COc1cc2cc3c(c(-c4ccc5c(c4)OCO5)c2cc1OC)C(=O)OC3 [Justicidin B, justicidin B] | 78.2 ± 0.01 | inhibited the secretion of IL4 and IL5 | 84.4 ± 0.00 | inhibited the secretion of IL4 and IL5 | 64.3 ± 0.50 | high inhibitory activities | – | – | – | – | – | – | – | – | – | – | Inhibition of IL4 secretion (%, n = 2, Mean ± SD) (IL4; Table 7, 0.5 μM): 35.9 ± 0.01%; Inhibition of IL4 secretion (%, n = 2, Mean ± SD) (IL4; [2]): 81.6 ± 0.02%; Inhibition of IL4 secretion (%, n = 2, Mean ± SD) (IL4; [3]): 87.6 ± 0.02%; Inhibition of IL5 secretion (%, n = 2, Mean ± SD) (IL5; Table 7, 0.5 μM): 55.8 ± 0.01%; Inhibition of IL5 secretion (%, n = 2, Mean ± SD) (IL5; [2]): 41.9 ± 0.04%; Inhibition of IL5 secretion (%, n = 2, Mean ± SD) (IL5; [3]): 66.8 ± 0.10%; Inhibition of splenocyte proliferation (%, n = 3, Mean ± SD) (splenocytes; Table 5, 0.25 μM): 14.2 ± 1.43%; Inhibition of splenocyte proliferation (%, n = 3, Mean ± SD) (splenocytes; Table 6, 0.25 μM): 72.5 ± 2.66%; Inhibition of splenocyte proliferation (%, n = 3, Mean ± SD) (splenocytes; Table 6, 0.5 μM): 90.8 ± 0.94%
2 | CC(C)(O)c1ccccc1CC[C@@H](SCC1(CC(=O)O)CC1)c1cccc(/C=C/c2ccc3ccc(Cl)cc3n2)c1 [Montelukast, montelukast] | – | – | – | – | – | – | 40.2 ± 2.64 | – | – | – | – | – | – | – | – | – | inhibition at 10 µM (IL4; Mus musculus, Splenocyte, Table 7, 10 μM, read-out: Inhibition of IL4 secretion (%, n = 2, Mean ± SD)): -42.6 ± 0.08%; inhibition at 10 µM (IL5; Mus musculus, Splenocyte, Table 7, 10 μM, read-out: Inhibition of IL5 secretion (%, n = 2, Mean ± SD)): 70.2 ± 0.01%; Epithelium thickness (μm), n = 5, Mean ± S.E. ([1]; 10 mg/kg): 25.5 ± 1.64 μm; Lung lavage fluid_IFN-γ (pg/mL), n = 5, Mean ± S.E. ([1]; 10 mg/kg): 32.2 ± 2.13## pg/mL; Lung lavage fluid_IL-4 (pg/mL), n = 5, Mean ± S.E. ([1]; 10 mg/kg): 96.9 ± 14.40## pg/mL; Lung lavage fluid_IL-5 (pg/mL), n = 5, Mean ± S.E. ([1]; 10 mg/kg): 194.4 ± 23.1## pg/mL; Lung lavage fluid_eosinophil number (×10^5), n = 5, Mean ± S.E. ([1]; 10 mg/kg): 0.7 ± 0.05## ×10^5; Lung lavage fluid_neutrophil number (×10^5), n = 5, Mean ± S.E. ([1]; 10 mg/kg): 1.5 ± 0.07## ×10^5; Lung lavage fluid_total inflammatory cell number (×10^5), n = 5, Mean ± S.E. ([1]; 10 mg/kg): 4.0 ± 0.25## ×10^5; Subepithelial smooth muscle thickness (μm), n = 5, Mean ± S.E. ([1]; 10 mg/kg): 10.7 ± 0.59 μm; inhibition at 10 µM (splenocytes; Mus musculus, Splenocyte, Table 4, 10 μM, read-out: Inhibition of splenocyte proliferation (n = 3, Mean ± SD)): 44.1 ± 4.34%
3 | COc1cc2c(OC)c3c(c(-c4ccc5c(c4)OCO5)c2cc1OC)COC3=O [Justicidin C, justicidin C] | −14.1 ± 0.05 | inhibited the secretion of IL4 and IL5 | 39.8 ± 0.03 | inhibited the secretion of IL4 and IL5 | −3.6 ± 4.00 | exhibited the effect of inhibiting splenocyte proliferation | – | 26.1 ± 0.04 | 25.3 ± 0.15 | 51.7 ± 0.02 | 36.4 ± 0.02 | 16.9 ± 0.06 | 26.2 ± 0.00 | 8.4 ± 3.20 | 6.7 ± 15.08 | 31.7 ± 12.81 | –
4 | C[C@@H]1C[C@H]2[C@@H]3CCC4=CC(=O)C=C[C@]4(C)[C@@]3(F)[C@@H](O)C[C@]2(C)[C@@]1(O)C(=O)CO [Dexamethasone, dexamethasone] | – | – | – | – | – | – | 118.7 ± 0.21 | – | – | – | – | – | – | – | – | – | inhibition at 0.5 µM (IL4; Mus musculus, Splenocyte, Table 7, 0.5 μM, read-out: Inhibition of IL4 secretion (%, n = 2, Mean ± SD)): 100%; Inhibition of IL4 secretion (%, n = 2, Mean ± SD) (IL4; [5]): 97.8 ± 0.00%; inhibition at 0.5 µM (IL5; Mus musculus, Splenocyte, Table 7, 0.5 μM, read-out: Inhibition of IL5 secretion (%, n = 2, Mean ± SD)): 103%; Inhibition of IL5 secretion (%, n = 2, Mean ± SD) (IL5; [5]): 98.9 ± 0.01%; Epithelium thickness (μm), n = 5, Mean ± S.E. ([1]; 1 mg/kg): 5.0 ± 0.38##, $$ μm; Lung lavage fluid_IFN-γ (pg/mL), n = 5, Mean ± S.E. ([1]; 1 mg/kg): 1.3 ± 0.61##, $$ pg/mL; Lung lavage fluid_IL-4 (pg/mL), n = 5, Mean ± S.E. ([1]; 1 mg/kg): 32.1 ± 9.51## pg/mL; Lung lavage fluid_IL-5 (pg/mL), n = 5, Mean ± S.E. ([1]; 1 mg/kg): 53.0 ± 13.59##, $$ pg/mL; Lung lavage fluid_eosinophil number (×10^5), n = 5, Mean ± S.E. ([1]; 1 mg/kg): 0.1 ± 0.01## ×10^5; Lung lavage fluid_neutrophil number (×10^5), n = 5, Mean ± S.E. ([1]; 1 mg/kg): 0.2 ± 0.02## ×10^5; Lung lavage fluid_total inflammatory cell number (×10^5), n = 5, Mean ± S.E. ([1]; 1 mg/kg): 1.3 ± 0.07## ×10^5; Subepithelial smooth muscle thickness (μm), n = 5, Mean ± S.E. ([1]; 1 mg/kg): 2.7 ± 0.35 μm; inhibition at 0.5 µM (splenocytes; Mus musculus, Splenocyte, Table 4, 0.5 μM, read-out: Inhibition of splenocyte proliferation (n = 3, Mean ± SD)): 110.3 ± 0.62%; inhibition at 0.2 µM (splenocytes; Mus musculus, Splenocyte, Table 6, 0.2 μM, read-out: Inhibition of splenocyte proliferation (%, n = 3, Mean ± SD)): 94.1 ± 1.8%
5 | phyllamyricin C | 9.8 ± 0.05 | inhibited the secretion of IL4 and IL5 | 22.9 ± 0.01 | inhibited the secretion of IL4 and IL5 | 0.9 ± 2.86 | exhibited the effect of inhibiting splenocyte proliferation | – | 14.4 ± 0.01 | 11.8 ± 0.01 | 51.5 ± 0.11 | 67.9 ± 0.01 | 0.5 ± 0.05 | 31.6 ± 0.08 | 18.8 ± 2.82 | 19.0 ± 18.44 | 25.0 ± 11.37 | –
6 | COc1cc2c(OC)c3c(c(-c4ccc5c(c4)OCO5)c2cc1OC)C(=O)OC3 [Justicidin A, justicidin A] | −10.6 ± 0.08 | inhibited the secretion of IL4 and IL5 | 25.4 ± 0.01 | inhibited the secretion of IL4 and IL5 | −2.7 ± 1.84 | high inhibitory activities | – | 54.7 ± 0.02 | 71.6 ± 0.02 | 86.4 ± 0.04 | 56.7 ± 0.00 | 11.7 ± 0.27 | 25.7 ± 0.08 | 85.0 ± 2.43 | 43.4 ± 1.63 | 99.0 ± 2.35 | Inhibition of splenocyte proliferation (%, n = 3, Mean ± SD) (splenocytes; Table 5, 1 μM): 9.4 ± 4.36%; Inhibition of splenocyte proliferation (%, n = 3, Mean ± SD) (splenocytes; Table 5, 2.5 μM): 56.4 ± 18.80%
